Columns and labels:
[1] = Stability of modifications suspended in solvent (conversion of crystal modification); type: physicochemical
Experimental: (§1) Studies on the Stability of the modifications of compound of formula (I)
A mixture of forms A and B was suspended in ethanol at 25° C.
Form C.II.1 (consisting of 30 wt. % of form A and 70 wt. % of form D) was suspended in ethanol at 25° C.
Form C.II.1 (consisting of 30 wt. % of form A and 70 wt. % of form D) was suspended in iso-propanol at 25° C.
Form CII.1 (consisting of 30 wt. % of form A and 70 wt. % of form D) was suspended in iso-propanol at 50° C.

[2] = Storage stability of dry powder at room temperature (conversion of crystal modification); type: physicochemical; details: about 6 weeks
Excerpt: as §1

Compound: CCOC(=O)COc1ncccc1Oc1cc(-n2c(=O)cc(C(F)(F)F)n(C)c2=O)c(F)cc1Cl [Form C.II.1]
- Stability of the modification: phase conversion in suspension ([1]; suspended in ethanol at 25° C., after 7 days): converted into form A
- Stability of the modification: phase conversion in suspension ([1]; suspended in iso-propanol at 25° C., after 7 days): converted into form A
- Stability of the modification: phase conversion in suspension ([1]; suspended in iso-propanol at 50° C., after 7 days): converted into form A

Compound: CCOC(=O)COc1ncccc1Oc1cc(-n2c(=O)cc(C(F)(F)F)n(C)c2=O)c(F)cc1Cl [form B, ethyl[3-[2-chloro-4-fluoro-5-(1-methyl-6-trifluoromethyl-2,4-dioxo-1,2,3,4-tetrahydropyrimidin-3-yl)phenoxy]-2-pyridyloxy]acetate]
- Stability of the modification: phase conversion during storage [2]: converts partially into form A

Compound: CCOC(=O)COc1ncccc1Oc1cc(-n2c(=O)cc(C(F)(F)F)n(C)c2=O)c(F)cc1Cl [mixture of forms A and B]
- Stability of the modification: phase conversion in suspension ([1]; suspended in ethanol at 25° C., after 5 days): converted into form A

Reference: patent publication US11311014B2, “Crystalline forms of ethyl[3-[2-chloro-4-fluoro-5-(1-methyl-6-trifluoromethyl-2,4-dioxo-1,2,3,4-tetrahydropyrimidin-3-yl)phenoxy]-2-pyridyloxy]acetate” (BASF SE, priority 2017, dated 2022)
